The subject of assay [1] is insulin receptor mRNA splice variants Ex11+/Ex11-. Nature of the assay: RT-PCR and densitometric analysis of insulin receptor mRNA splice variants in penile tissue after castration and testosterone replacement. Type of assay: in vivo, rat. The procedure: Tissue samples (100-200 mg) were pulverized in liquid nitrogen. Total RNA was isolated using guanidium thocyanate, phenol-chloroform extraction (pecLab, Erlangen, Germany). The RNA was precipitated with isopropanol at −20° C. for 2 h, washed with 75% ethanol, dissolved in diethylpyrocarbonate water and quantified spectrometrically at 260 nm. The ratio of absorption of all preparations was between 1.8 and 2.0. To ensure that concentration was identical in each sample, the intensity of 28 sRNA was compared on an 1% agarose gelectrophoresis after ethidium bromide staining. Total RNA was stored at −80° C. until further use.
First strand cDNA synthesis was carried out using a commercially available kit (Gibco BRL). Briefly, 4 μg of total RNA was primed with 0,5 μg of oligo(dT)12-18 and incubated 10 min at 70° C. For each sample lx first strand puffer, 0,2M DTT, 10 mM dNTP's and 200U of Superscript II reverse transcriptase were added. Reverse transcription was performed at 42° C. for 50 min and stopped by heating for 15 min. at 70° C. The resulting cDNA templates were stored at −20° C. or directly used for PCR.
After a denaturation period of 3 min the PCR reaction was followed by 35 cycles of 95° C. for 60 sec., 60° C. for 60 sec. and 72° C. for 60 sec. PCR was performed with 6 μl cDNA, 10 mM of each dNTP, 5U Taq-Polymerase (Biotherm) and 50 pmol of both sense and antisense primers in PCR buffer. The final volume of each reaction was 50 μl. Reaction products (15 μl) were run on a 2.5% agarose gel. Primers used for PCR were: […]
Densitometric analysis of the insulin receptor mRNA splice variant levels was performed using the Image Quant 5.0 software.
For the proportion of the two insulin receptor variant mRNA levels, significance of the difference of the mean values was determined by unpaired student's t-test. The threshold for signigicance was set at p<0.05.
Pellets for testosterone-or placebo-implantation were received from Innovative Research of America, Sarasota, Fla., USA. […]

The nature of assay [2]: Organ weights after castration and testosterone replacement in young rats. Type of assay: in vivo, rat. On the procedure: Pellets for testosterone-or placebo-implantation were received from Innovative Research of America, Sarasota, Fla., USA. To evaluate the effects of castration and testosterone replacement male wistar rats (3 months, n=21) were divided into three groups: Group 1, intact (shame operated, given a placebo-pellet by implantation under the dorsal skin, n=7), group 2, castrated (implantation of placebo-pellet, n=7) and group 3, castrated, but given a testosterone-implantate of 15 mg (n=7). 3 weeks after treatment rats were killed and penile tissue as well as blood samples were treated as described in example 1. The experimental study was conducted in accordance with the general federal law on the care and use of laboratory animals.
It was noted that the level of testosterone in the serum of young versus old rats were 4.436±1.1 and 0.57±0.17 ng/ml (mean±SD, n=4) respectively, pointing to a drop in the level of testosterone in circulation of aged animals. This is in agreement with Zirkins lab (Zirkin et al., Exp. Gerontol. 32:529-537 (1997); Zirkin and Chen, Biol. Reprod. 63:977-981 (2000)). In order to discern if the observed ageing related alteration in the expression of two splice variants of insulin receptor mRNA could be due to a declining androgen level in the ageing rats, we have performed orchiedectomy on young rats. One group of castrated rats received androgen releasing subcutanous implant. […] The effect of castration and andorgen-replacement of the insulin receptor mRNA expression in penile tissue of young rats is presented in FIG. 4a. […] Following castration, the appearance of the smaller splice variant was observed, the pattern resembling the old animals.

Setting [3] is: young castrated rats with androgen supplementation (testosterone implant 15 mg), 3 weeks, FIG. 4b.
The mark [4] stands for this setting: young (3 months) castrated male wistar rats, testosterone implant 15 mg, 3 weeks after treatment, n=7.

The record followed here is patent publication US20030232747A1, “Method of identifying a pharmaceutically active compound for the treatment of a condition caused by altered expression of the insulin receptor” (priority 2002, published 2003).

Each structure is given as a SMILES string.

As to `C[C@]12CC[C@H]3[C@@H](CCC4=CC(=O)CC[C@@]43C)[C@@H]1CC[C@@H]2O` [testosterone], in assay [1] (setting [3]), the “Relative proportion of Ex11+ insulin receptor mRNA in penis” value is recorded as 22.8% and the “Relative proportion of Ex11- insulin receptor mRNA in penis” value worked out at 77.2%. Also, in assay [1] (young castrated rats with androgen supplementation, FIG. 4a), the “Appearance of the smaller insulin receptor splice variant (Ex11-) in penile tissue (in words)” value was “this isoform persisted”. In assay [2] (setting [4]), the “Penis weight in relation to body weight” value was 78.55 ± 5.54 mg/100 g body weight and the “Prostate weight in relation to body weight” value is 92.37 ± 33.89 mg/100 g body weight. In addition, the “Effect on castration-induced reduction of penis and prostate weight (in words)” value in assay [2] (young castrated rats, testosterone replacement) is given as “induced a reversal of this effect in both organs”.
